Experimental findings from ChEMBL document CHEMBL5506073, “Discovery of Novel Ortho-Aminophenol Derivatives Targeting Lipid Peroxidation with Potent Antiferroptotic Activities” (J Med Chem, 2024) are described below.

In this test the test system is HT-1080. In words: Inhibition of RSL3-induced ferroptosis in human HT-1080 cells assessed as cell viability upto 10 uM incubated for 24 hrs by CCK8 assay. The test is classed as functional, cell-based. (In general: Tetrazolium dyes change colour on reduction, which living cells bring about.)

The structures appear in SMILES notation. Activity calls are given as the source filed them. No cut-off for these calls is given here.

`Nc1c(O)cccc1C(=O)O`: the inhibition entry is “inactive”.
